Reference: patent US20150110849A1, “ANTIMICROBIAL ACCESSORY FOR AN IMPLANTABLE MEDICAL DEVICE” (Medtronic, Inc., priority 2009, published 2015)
Counter-ions that a name gives are not always drawn.

Assay: zone of inhibition (ZOI) of antimicrobial accessories
Assay type: cell-based
Source text: Examples 30-54 illustrate zone of inhibition (ZOI) data collected for antimicrobial accessories including minocycline HCl and/or rifampin. Various polymers and excipients were used in combination with minocycline HCl and/or rifampin. […] In Table 22, M stands for minocycline HCl, R stands for rifampin, SiO2 is silica, PVP is polyvinylpyrrolidone, BIO-PSA 7-4601 is a silicone PSA available from Dow Corning Corp, Midland, Mich., MDX4-4210 is a liquid silicone rubber available from Dow Corning, Corp., Midland, Mich., LSR Q7-4850 is a liquid silicone rubber available from Dow Corning, Corp., Midland, Mich., and MED-1137 a silicone adhesive available from NuSil Silicone Technology, Carpinteria, Calif.

SMILES	Average ZOI
CN(C)c1ccc(O)c2c1C[C@H]1C[C@H]3[C@H](N(C)C)C(O)=C(C(N)=O)C(=O)[C@@]3(O)C(O)=C1C2=O [Example 30, minocycline HCl]	16 mm
CO[C@H]1/C=C/O[C@@]2(C)Oc3c(C)c(O)c4c(O)c(c(/C=N/N5CCN(C)CC5)c(O)c4c3C2=O)NC(=O)/C(C)=C\C=C\[C@H](C)[C@H](O)[C@@H](C)[C@@H](O)[C@@H](C)[C@H](OC(C)=O)[C@@H]1C [Example 31, rifampin]	17 mm
